Experimental data taken from patent publication US20040162274A1, “Inhibition of steroid synthesis by use of progesterone or a progesterone receptor agonist” (priority 2002, published 2004).

Legend:
Assay type in all cases: cell-based, rat
StAR protein = experiment: StAR expression in Leydig cells in vitro (northern blot)
Text: RNA was isolated from 1.5×10^6 high-quality cleaned Leydig cells, which were cultivated in 12-well plates (750,000 cells/well). The RNA was extracted in accordance with a modified single-step method of Chomczynski and Sacchi, Anal. Biochem., 162:156-159 (1987), using the small-scale phenol-free RNA isolation kit (Ambion Inc., Austin, Tex.). According to the size, the isolated RNA was separated by gel electrophoresis in a 1.2% agarose gel using the formaldhyde/morpholino-propane sulphonic acid method (Sambrook et al., Vol.1, 7.37, 7.39-7.52, Nolan, C. (Ed), Cold Spring Harbor Laboratory Press, Cold Spring Harbor, N.Y.). The transfer (blotting) of the RNA from the gel onto a nylon membrane (nytran, Schleicher and Schüll, Dassel, Germany) was carried out by capillary transfer using a downwards-directed transfer for 4 hours in accordance with the manufacturer's instructions (Ambion Inc., Austin, Tex.; AMS Biotechnology, Wiesbaden, Germany) with modifications by Chomczynski, P., Anal. Biochem., 201:134-139 (1992). […]
As the gestagens mentioned above apparently both have inhibitory effects on cAMP and on the production of steroids in gonadotropin-stimulated Leydig cells, the inhibitory effects of progesterone on the quantity of StAR protein expressed were analysed. […] At the end of the incubation, total RNA was extracted and StAR protein expression was analysed using northern blots. […]

[1] = system: isolated Leydig cells of rats; experiment: hCG-induced cAMP production in isolated Leydig cells of rats (ELISA); conditions: for amount of cAMP formed in the cells in response to gonadotropic stimulation: FIGS. 2 and 3
Experimental: (§1) The testicles of young (three months old) and old (23-24 months old) Wistar rats (Charles River, Sulzfeld, Germany) were removed immediately after killing the rats by means of carbon dioxide anaesthesia and cervical dislocation.
(§2) In order to isolate and to purify the Leydig cells from the testicles of young and old rats, the decapsulated testicular mass of healthy Wistar rats was treated with collagenase (0.25 mg/ml) for 30 minutes at room temperature as described by Mukhopadhyay et al., Biochem. J., 239:463-467 (1986a), Mukhopadhyay et al., FEBS Lett., 202:111-116 (1986b)). The homogenous cell suspension so obtained was filtered through a nylon filter to obtain an impure Leydig cell preparation. After further purification by means of a Percoll gradient, the final number of high-grade purified Leydig cells was determined using a Neubauer chamber.
Aliquots of 100,000 cells per incubation tube were used for the experiments in which cAMP was measured. The cells were pre-incubated for 3 hours and subsequently incubated for 30 minutes with or without the addition of different concentrations of hCG as a surrogate for LH. In order to investigate the effect of the different steroids, Leydig cells were subjected to steroids for 3 hours as described. The cells were then stimulated with hCG (3 ng/ml) for 30 minutes. Incubation was stopped by the addition of absolute ethanol (final alcohol concentration ca. 80%) and subsequent mixing by means of vortices. The ethanol extract was evaporated until dry, and the residue dissolved in 1 ml of MEM, which contained 0.1% sodium azide. The amount of cAMP formed was determined by means of a specific ELISA, which was carried out as described in Budnik and Mukhopadhyay, FEBS Letters, 419:4-8 (1997). However, commercially available ELISAs, such as, for example, CM 59221 (IBL, Hamburg, Germany) or DE 0355 or DE 0450 (R&D Systems GmbH, Wiesbaden, Germany) can also be used.
Leydig cells were subjected to 3 different steroids for 3 hours (see FIG. 1). Subsequently, the cells were stimulated over 30 minutes with hCG (human chorion gonadotropin; 3 ng/ml) as a surrogate for LH.
The amount of cAMP formed was determined using a specific ELISA.

[2] = system: isolated Leydig cells of rats; experiment: hCG-induced testosterone production in isolated Leydig cells of rats; conditions: different concentrations for 3 hours, then hCG 5 ng/ml for 3 hours; testosterone in medium; FIG. 3
Experimental: as §1, §2
Similar culture conditions as described above were used for experiments, in which testosterone was measured. However, aliquots of 50,000 cells per incubation tube were used. […] The content of testosterone was determined by means of specific, commercially available kits (IBL, Hamburg). The amount of testosterone for 100,000 cells was calculated on the basis of the measured values.
Both R5020 and drospirenone are clearly, structurally different from testosterone. […] Then, the quantity of testosterone that accumulated in the medium was measured.

Row | Compound | hCG-stimulated amounts of StAR protein (StAR protein; pre-incubation 3 hours, then hCG 5 ng/ml 3 hours, Lane 4 vs Lane 2, FIG. 4) | expression of StAR protein in cells not treated with a gonadotropin (StAR protein; pre-treatment 3 hours, no hCG, Lane 3, FIG. 4) | effect on cAMP reaction to gonadotropin stimulation ([1]; Leydig cells subjected to steroid 3 hours, then hCG 3 ng/ml 30 minutes, FIG. 1) | effect on hCG-induced cAMP formation at 0.1 μmol/l ([1]; concentration 0.1 μmol/l (10^−7 mol/l)) | effect on hCG-induced cAMP formation, dose-response curve ([1]; dose-response curve, FIG. 2) | effect on hCG-induced cAMP formation at higher concentrations ([1]; higher concentrations, up to 2.5 μmol/l) | effect on hCG-induced production of testosterone [2] | amount of cAMP formed in the cells in response to gonadotropic stimulation [1]
1 | CC(=O)[C@H]1CC[C@H]2[C@@H]3CCC4=CC(=O)CC[C@]4(C)[C@H]3CC[C@]12C [progesterone, 4-pregnene-3,20-dione] | significant reduction | did not significantly affect | significantly inhibit | almost no effects | dose-dependent inhibitory effect | clearly inhibitory effects |  | 
2 | CCC(=O)[C@@]1(C)CC[C@H]2[C@@H]3CCC4=CC(=O)CCC4=C3CC[C@@]21C [R5020] |  |  |  |  |  |  | able to inhibit the production of testosterone | drastically reduced
3 | C[C@]12CCC(=O)C=C1[C@@H]1C[C@@H]1[C@H]1[C@@H]3[C@@H]4C[C@@H]4[C@@]4(CCC(=O)O4)[C@@]3(C)CC[C@@H]12 [drospirenone] |  |  |  |  |  |  | able to inhibit the production of testosterone | drastically reduced
